Reference: PubChem BioAssay (NCI)
Several values for one entry are separate records, joined by “and”; a condition that tells them apart may be missing. Equal values may be shown once.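 Five compound concentrations were applied to cells in 96-well plates for 48 hours; endpoints were derived by simple linear interpolation of the resulting dose-response curve. Here, GI50 denotes the concentration required for 50% inhibition of growth. The concentration for full growth arrest is given as TGI.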

How the values were obtained:
Test in all cases: DTP human tumour cell line panel, 48 h
SR leukemia = system: SR leukemia
PC-3 prostate = system: PC-3 prostate
LXFL 529 NSCLC = system: LXFL 529 NSCLC
HOP-18 NSCLC = system: HOP-18 NSCLC
DMS 273 small cell lung = system: DMS 273 small cell lung
DLD-1 colon = system: DLD-1 colon
M19-MEL melanoma = system: M19-MEL melanoma
SNB-78 CNS = system: SNB-78 CNS
RXF-631 renal = system: RXF-631 renal
KM20L2 colon = system: KM20L2 colon
XF 498 CNS = system: XF 498 CNS
DMS 114 small cell lung = system: DMS 114 small cell lung

| SMILES | TGI (SR leukemia) [µM] | TGI (PC-3 prostate) | further results |
| --- | --- | --- | --- |
| CCC(C)[C@@H](NCc1ccccc1)[C@H](OCc1ccccc1)[C@@H]1COC(C)(C)O1 (stereo partly drawn) | 60.5 | > 100 µM |  |
| C1=C\SS/C=C\SS/C=C\SS/C=C\SS/1 | > 100 | > 100 µM |  |
| O=C(O)CCCl | > 5000 |  | TGI (LXFL 529 NSCLC): > 5000 µM; TGI (HOP-18 NSCLC): > 5000 µM; TGI (DMS 273 small cell lung): > 5000 µM; TGI (DLD-1 colon): > 5000 µM; TGI (M19-MEL melanoma): > 5000 µM; TGI (SNB-78 CNS): > 5000 µM |
| CCOC(=O)c1cnc(-n2[nH]c(C)c(CCO)c2=O)[nH]c1=O |  | > 100 µM |  |
| O=C1C2CCCCC2C(=O)N1n1c(Cc2ccc(Cl)cc2)n[nH]c1=O (stereo not drawn) | > 100 | > 100 µM |  |
| C1CC2=C(C1)[Se]C(=C1Sc3nsnc3S1)[Se]2 |  | > 100 µM |  |
| CC(=O)NC1C(OCc2ccccc2)OC(CO)C(O)C1OCC(=O)NC(C)C(=O)NC(CCC(=O)NCCCCNc1ccc([N+](=O)[O-])c2[nH]c3ccccc3c(=O)c12)C(N)=O (stereo not drawn) | > 100 | > 100 µM |  |
| CCOC(=O)c1cccc(NC(=O)CCl)c1 | 7.46 | 18.1 µM |  |
| O=C(CP(c1ccccc1)c1ccccc1)c1cccc(C(=O)CP(c2ccccc2)c2ccccc2)c1 | 61.5 | > 100 µM |  |
| C=CCC1(O)c2ccccc2C(=O)c2c(O)ccc(O)c21 (stereo not drawn) | > 69.8 | 35.5 µM |  |
| Cc1ccc(C2CC(=O)CC(c3ccc(C)cc3)C23C(=O)NC(=O)NC3=O)cc1 (stereo not drawn) | > 100 | > 100 µM |  |
| Cc1ccc(C)n1-c1ccccc1C1SCCCS1 |  | > 100 µM |  |
| O=C1Oc2ccccc2C(=O)/C1=C/N1C(=O)N/C(=C\c2ccccc2O)C1=O | > 100 | > 100 µM |  |
| O=c1cc(CNC2CCCC2)[nH]c(=O)[nH]1 | > 100 | > 100 µM |  |
| O=c1c2ccccc2oc2nc3n(c(=O)c12)CCCS3 | > 100 | > 100 µM |  |
| [O-]/[N+](=C\c1ccccc1)[C@H](COCc1ccccc1)c1ccccc1 |  |  | TGI (LXFL 529 NSCLC): > 100 µM; TGI (HOP-18 NSCLC): 90.4 µM; TGI (DMS 273 small cell lung): > 100 µM; TGI (DLD-1 colon): > 100 µM; TGI (M19-MEL melanoma): > 100 µM; TGI (RXF-631 renal): > 100 µM; TGI (KM20L2 colon): > 100 µM; TGI (XF 498 CNS): > 100 µM; TGI (DMS 114 small cell lung): > 100 µM; TGI (SNB-78 CNS): > 100 µM |
| CCC(C)[C@H](NC(=O)[C@H](Cc1ccccc1)NC(=O)N(CC)c1ccccc1)C(=O)N[C@@H](CC(C)C)C(=O)OC (stereo partly drawn) |  | > 100 µM |  |
| COc1ccc(/C=C2\CN(C)Cc3c2nc(N)nc3-c2ccc(OC)cc2)cc1 |  |  | TGI (LXFL 529 NSCLC): > 100 µM; TGI (DMS 273 small cell lung): > 100 µM; TGI (DLD-1 colon): > 100 µM; TGI (M19-MEL melanoma): > 100 µM; TGI (KM20L2 colon): > 100 µM; TGI (XF 498 CNS): > 100 µM; TGI (DMS 114 small cell lung): > 100 µM; TGI (SNB-78 CNS): > 100 µM |
| O=C1NC(N/N=C\C(O)C(O)C(O)CO)=N/C1=C/c1ccccc1 (stereo not drawn) | > 100 | > 100 µM | GI50 (SR leukemia): > 100 µM and 44.1 µM; GI50 (PC-3 prostate): > 100 µM and 48.9 µM |
| O=C1CSC2(CC(/C=C/c3ccccc3)=NN2c2cccc(S(=O)(=O)O)c2)N1c1nc2ccccc2s1 (stereo not drawn) | 61 | 59.3 µM |  |
| O=C1C=CC2CCC1C2 (stereo not drawn) |  | > 100 µM |  |

| SMILES | TGI (SR leukemia) [µM] | TGI (PC-3 prostate) | further results |
| --- | --- | --- | --- |
| CC(C)(C)OC(=O)CN1CCNCCNCC1 | > 100 | > 100 µM |  |
| O=S(=O)(Oc1ccc2oc3ccccc3c2c1-c1c(OS(=O)(=O)C(F)(F)F)ccc2oc3ccccc3c12)C(F)(F)F | > 100 | > 100 µM |  |
| Cc1nc2c(=S)[nH]ncc2[nH]1 |  | > 100 µM |  |
| COc1c2c(c3c(c1C1OC(C)[C@@H](C)O1)CC(C)(C)O3)C(=O)c1ccccc1C2=O (stereo partly drawn) | 68.2 |  | TGI (LXFL 529 NSCLC): > 100 µM; TGI (DMS 273 small cell lung): 69.7 µM; TGI (DLD-1 colon): > 100 µM; TGI (M19-MEL melanoma): > 100 µM; TGI (RXF-631 renal): 33.4 µM; TGI (KM20L2 colon): > 100 µM; TGI (XF 498 CNS): > 100 µM; TGI (DMS 114 small cell lung): > 100 µM; TGI (SNB-78 CNS): > 100 µM |
| C=C1C(=O)OC2/C=C(\C)C(OC(C)=O)C3OC3C(C)(O)CC(OC(=O)/C(C)=C/C)C12 (stereo not drawn) | 23.2 |  | TGI (LXFL 529 NSCLC): 10.1 µM; TGI (HOP-18 NSCLC): 23.5 µM; TGI (DMS 273 small cell lung): 60 µM; TGI (M19-MEL melanoma): 22.3 µM; TGI (KM20L2 colon): 15.2 µM; TGI (XF 498 CNS): 18.2 µM; TGI (DMS 114 small cell lung): 20 µM; TGI (SNB-78 CNS): 30.5 µM |
| c1ccc(CNC2CC(NCc3ccccn3)CC(NCc3ccccn3)C2)nc1 (stereo not drawn) |  | 5.68 µM and 8.75 µM and 3.98 µM | GI50 (PC-3 prostate): 2.24 µM and 4.59 µM and 2.02 µM |
| C=C(C)[C@@H]1CC[C@]2(C(=O)O)CC[C@]3(C)[C@H](CC[C@@H]4[C@@]5(C)CC(=O)C(C)(C)[C@@H]5CC[C@]43C)[C@@H]12 | 12.3 | 19.7 µM |  |
| CCc1nn(CN2CCN(C)CC2)c(=S)n1/N=C\c1ccc(-c2ccc([N+](=O)[O-])cc2)o1 | > 100 | > 100 µM |  |
| CN(C)c1nc2sc3c(c2c(=O)o1)CCCC3 | > 100 | > 100 µM |  |
| CC1(C)O[C@H]2Cn3c(c(C#N)c4ccccc43)[C@H]2O1 | > 100 |  |  |
| c1csc(-c2ccc(-c3ccc(-c4ccc(-c5cccs5)s4)s3)s2)c1 | > 100 |  |  |
| CCOC(=O)c1cn(-c2ccccc2)c(=S)n2c1nc1ccccc12 | 84.6 | > 90 µM |  |
| COc1ccc(-c2nc(N)c(C#N)c3c2CCS(=O)(=O)c2ccc(C)cc2-3)cc1OC |  | > 100 µM |  |
| O=C(O)[C@H]1[C@@H](C2CCCCC2)O[C@@H](C2CCCCC2)O[C@H]1C(F)(F)F | 46.9 | 32.1 µM |  |
| CO/C(=N\N=C\c1cc(OC)ccc1OC)c1ccncc1 | > 10 | > 10 µM |  |
| CN1C/C(=C\c2cccs2)C2=NC(=S)NC(c3cccs3)C2C1 (stereo not drawn) | 54.2 | > 100 µM |  |
| O=S(=O)(c1ccc(Br)cc1)n1c2ccc(Br)cc2c2nc3ccccc3nc21 |  | > 100 µM |  |
| CC1=NN(C(=O)CSc2nnc(SCC(=O)N3N=C(C)CC3(O)c3ccccc3)s2)C(O)(c2ccccc2)C1 (stereo not drawn) | > 100 | > 100 µM |  |
| Cc1ccc(S(=O)(=O)N/N=C/c2oc(-c3cccc([N+](=O)[O-])c3)c(-c3cccc([N+](=O)[O-])c3)c2[N+](=O)[O-])cc1 | 45.8 |  | TGI (LXFL 529 NSCLC): > 100 µM; TGI (HOP-18 NSCLC): > 100 µM; TGI (DLD-1 colon): > 100 µM; TGI (RXF-631 renal): > 100 µM; TGI (KM20L2 colon): > 100 µM; TGI (XF 498 CNS): > 100 µM |
| CC[C@@]1(O)C(=O)OCc2c1cc1n(c2=O)Cc2c-1nc1ccccc1c2/C=N\NC(=O)C(N)CC(C)C (stereo partly drawn) | < 0.0109 | > 100 µM |  |
| C[N+]1(C)CCCC1C(=O)[O-] (stereo not drawn) | > 100 |  | TGI (LXFL 529 NSCLC): > 100 µM; TGI (HOP-18 NSCLC): > 100 µM; TGI (DMS 273 small cell lung): > 100 µM; TGI (DLD-1 colon): > 100 µM; TGI (M19-MEL melanoma): > 100 µM; TGI (KM20L2 colon): > 100 µM; TGI (XF 498 CNS): > 100 µM; TGI (DMS 114 small cell lung): > 100 µM; TGI (SNB-78 CNS): > 100 µM |
